# Test results from article PMC11642940, “A New Demand for Improved Selectivity and Potency of Cyanine Dyes as Antiproliferative Agents Against Colorectal Cancer Cells” (Molecules, 2024).
# Read-outs that look alike come from different tables or passages of the source.
# Assays:
# Caco-2 cells = test: Apoptosis (sub-G1 events) by PI staining and flow cytometry; type: cell-based, human; details: 72 h
# Description: Given that apoptosis is a common programmed mechanism regulating cell death, characterized by DNA fragmentation and an increase in sub-G1 events, we employed the method described by Riccardi and Nicolleti to assess potential apoptosis induction using flow cytometry. Cyanine dyes 5 and 10 were tested at concentrations of 1 µM and 10 µM, respectively. As positive controls for apoptosis, 600 mM sorbitol and 10 µM 5-FU were used, with untreated cells serving as the negative control. […] In contrast, dye 10 induced a slight increase in apoptosis, reaching 1.7%. […] Apoptotic bodies were more evident in cells treated with dye 5 compared to dye 10, which is further supported by the slightly higher apoptosis induction in this assay.
# Apoptosis (sub-G1 events) and cell cycle distribution were evaluated by propidium iodide (PI) staining and flow cytometry, as described by Riccardi and Nicolleti. […] Untreated cells were used as the negative control, and sorbitol and 5-FU were used as positive controls. After incubation, the supernatant was collected in a centrifuge tube, cells were washed with PBS, trypsinized and wells were once again washed with PBS. This cell suspension was maintained on ice, centrifugated at 300 g for 5 min, and then the pellet was resuspended in 0.5 mL of PBS. Cells were fixed by adding 4.5 mL of 70% ethanol cooled at −20 °C on ice and were stored at −20 °C for a period ranging from one to a few days. On the day of flow cytometry analysis, PBS was added to the fixed cell tubes, followed by centrifugation and removal of the supernatant. The pellet was resuspended in 0.5 mL of PBS and 0.5 mL of DNA extraction solution (192 mL of 0.2 M sodium phosphate and 8 mL of […], pH 7.8). After incubation for 5 min, the cells were once again centrifuged, the supernatant was removed, and the pellet was resuspended in 0.3 mL of staining solution (20 µg/mL of PI and 0.2 mg/mL of DNase-free RNase in PBS). Using a FACSCalibur flow cytometer (Becton Dickinson, Franklin Lakes, NJ, USA) with a 488 nm laser line, a minimum of 20,000 events were acquired and recorded using the BD CellQuestTM Pro 4.0.2 software, and analyzed with FlowJo 10.5.3 software. To exclude debris and necrotic cells, events with a lower diameter (forward scatter; FCS) and PI fluorescence (FL3) than the hypodiploid apoptotic cells were eliminated (Figures S1 and S2). Two independent experiments were performed. A Student’s t-test was performed to evaluate the statistical significance of the results.
# [1] = system: MCF-7 breast adenocarcinoma cells; test: MTT cell viability assay, MCF-7; details: for IC50 / viability at 10 µM: Homo sapiens, MCF7, 72 h; for viability at 10 µM: read-out: cell viability percentage in relation to control, MCF-7; for SI MCF-7 (selectivity index versus NHDF): MCF-7 versus NHDF, 72 h
# Description: To evaluate the anticancer potential of monomethine cyanine dyes 1–12, a cell proliferation study was conducted using the 3-(4,5-dimethylthiazol-2-yl)-2,5-diphenyltetrazolium bromide (MTT) assay. For this preliminary evaluation, a concentration of 10 µM for each dye was tested, with the well-established chemotherapy agent 5-fluorouracil (5-FU) serving as a positive control. The assay included normal human dermal fibroblasts (NHDF) as non-tumor cells, alongside tumor cell lines from colorectal (Caco-2), prostate (PC-3), and breast (MCF-7) adenocarcinomas.
# The cell lines used in this study (Caco-2, MCF-7, PC-3, and NHDF) were obtained from the American Type Culture Collection (ATCC, Manassas, VA, USA) and cultured in 75 cm^2 culture flasks at 37 °C in a humidified atmosphere with 5% CO2 in a LEEC Culture Safe Precision CO2 Incubator. PC-3 cells were grown in Roswell Park Memorial Institute (RPMI) medium supplemented with 10% of inactivated Fetal Bovine Serum (FBS) and 1% of an antibiotic mixture (Sp; 10,000 U/mL of penicillin G and […] of streptomycin). MCF-7 and Caco-2 cell lines were both cultured using Dulbecco’s Modified Eagle Medium (DMEM). However, the medium for MCF-7 cells was complemented with 10% of inactivated FBS and 1% of antibiotic/antimycotic mixture (Ab; 10,000 U/mL of penicillin G, […] of streptomycin and 25 µg/mL of amphotericin B), and the medium for Caco-2 cells was supplemented with 20% of inactivated FBS and 1% of Sp. Finally, RPMI medium supplemented with 10% FBS, 2 mM of L-glutamine, 10 mM of 4-(2-hydroxyethyl)-1-piperazineethanesulfonic acid (HEPES), 1 mM of sodium pyruvate, and 1% of Ab was used to culture NHDF cells. The culture media were renewed every two to three days until near confluence was achieved. Then, cells were detached using a solution of 0.125 g/L of trypsin and 0.02 g/L of ethylenediaminetetracetic acid (EDTA), counted by the trypan blue method, resuspended, and adequately seeded to continue the culture in 75 cm^2 flasks or for the experiments described below. All manipulations were performed in a Labculture Class II A2 Biological Safety Cabinet.
# After trypsinization, cells were seeded in 96-well culture plates (100 µL; 2 × 10^4 cells/mL), and after 48 h (for adherence), they were incubated with the compounds under study in the absence of light for a duration of 72 h. Then, the medium was removed, and fresh incomplete culture medium (without FBS and Ab or Sp) and MTT solution [5 mg/mL in phosphate buffer saline (PBS)] were added to each well, followed by 4 h of incubation. After this, the medium containing MTT was removed and DMSO was added to dissolve formazan crystals. The absorbance of each well at 570 nm was determined using a microplate spectrophotometer Bio-Rad (Hercules, CA, USA) xMark. Untreated cells were considered the negative control, and 5-FU, a clinically used drug, was considered the positive control. For data analysis, the relative cell proliferation relative to the negative control cells was calculated. For each cell viability study, at least two independent assays in quadruplicate were performed. Increasing concentrations of the compounds between 0.001 and 100 μM were used to determine the IC50 values.
# NHDF cell line = test: Phototoxicity assay (MTT after white light irradiation); type: cell-based; details: Homo sapiens, light or radiation study, 30 min white light irradiation (30 W RGB LED) after 48 h, 72 h in total
# Description: While this work focused on monomethine cyanine dyes designed to be used at the outer edge of the “phototherapeutic window” (650–850 nm), photocytotoxicity and photostability studies were carried out for cyanines 5 and 10, as part of an effort to determine whether there would be synergistic action from light exposure on their cytotoxicity. A 30 W RGB LED light source, previously validated by our research group, was applied to the NHDF cell line using the MTT assay. […] These reductions in cytotoxicity align with previous studies on similar compounds and are likely due to some level of photodegradation.
# A phototoxicity evaluation was performed on the NHDF cell line with a similar methodology to the MTT assay and following previously validated methods. After 48 h of incubation with increasing concentrations ranging from 0.001 to 100 μM, cells were subjected to 30 min of constant irradiation with the white light of a Luxtar (Yancheng, Jiangsu, China) RGBW LED projector (220–240 V and 30 W). After this irradiation, the cells were incubated at 37 °C for an additional 24 h (72 h in total). This assay was performed in quadruplicate, and two independent assays were realized.
# [2] = read-out: IC50 MCF-7, MCF-7, 72 h incubation, MTT
SMILES,"apoptosis (sub-G1 events), % of cells (Caco-2 cells; Caco-2, 10 µM) [%]",IC50 ([1]; read-out: IC50 MCF-7) [µM],viability at 10 µM [1] [%],SI MCF-7 (selectivity index versus NHDF) [1],"apoptosis (sub-G1 events), % of cells (Caco-2 cells; Caco-2, 1 µM)",IC50 (NHDF cell line) [µM],"IC50 [1, 2] [µM]"
"O=c1[nH]cc(F)c(=O)[nH]1 [5-FU, 5-fluorouracil, reference compound]",12.8,2.12,25.3 ± 4.94,2.1,,,
"CN1C(=Cc2oc3ccccc3[n+]2C)C=Cc2ccccc21.Cc1ccc(S(=O)(=O)[O-])cc1 [Dye 5, 3-Methyl-2-((1-methylquinolin-2(1H)-ylidene)methyl)benzo[d]oxazol-3-ium 4-methylbenzenesulfonate]",,,6.34 ± 1.06,0.7,approximately 2.3%,4.07,3.83
"CCN1C(=Cc2sc3cc([N+](=O)[O-])ccc3[n+]2CC)Sc2ccccc21.Cc1ccc(S(=O)(=O)[O-])cc1 [Dye 10, 3-Ethyl-2-((3-ethylbenzo[d]thiazol-2(3H)-ylidene)methyl)-6-nitrobenzo[d]thiazol-3-ium 4-methylbenzenesulfonate]",1.7,,10.6 ± 6.44,1.7,,34.1,13.3
